Measured values reported in patent US7541346B2, “Pancratistatin cyclic phosphate prodrugs and phenpanstatin cyclic phosphate prodrugs” (Arizona Board of Regents, a body corporate of the State of …, priority 2003, dated 2009).
Converted amounts (≈) assume the structure as drawn. Where two headings read alike, the source gives them in different places.

What was measured:
DU-145 = assay: Human cancer cell line inhibitory activity, Prostate DU-145; assay type: cell-based; conditions: for GI50: Homo sapiens, DU-145, read-out: GI50 Prostate DU-145
MCF-7 = assay: Human cancer cell line inhibitory activity, Breast MCF-7; assay type: cell-based; conditions: for GI50: Homo sapiens, MCF7, read-out: GI50 Breast MCF-7
BXPC-3 = assay: Human cancer cell line inhibitory activity, Pancreas-a BXPC-3; assay type: cell-based; conditions: for GI50: Homo sapiens, BXPC-3, read-out: GI50 Pancreas-a BXPC-3
NCI-H460 = assay: Human cancer cell line inhibitory activity, Lung-NSC NCI-H460; assay type: cell-based; conditions: for GI50: Homo sapiens, NCI-H460, read-out: GI50 Lung-NSC NCI-H460
KM20L2 = assay: Human cancer cell line inhibitory activity, Colon KM20L2; assay type: cell-based; conditions: for GI50: Homo sapiens, KM-20L2, read-out: GI50 Colon KM20L2
SF268 = assay: Human cancer cell line inhibitory activity, CNS SF268; assay type: cell-based; conditions: for GI50: Homo sapiens, SF-268, read-out: GI50 CNS SF268
[1] = tested on: Encephalitozoon intestinalis; conditions: in vitro; cited from earlier work

SMILES | GI50 Prostate DU-145 (DU-145) [µg/mL] | GI50 Breast MCF-7 (MCF-7) [µg/mL] | GI50 Pancreas-a BXPC-3 (BXPC-3) [µg/mL] | GI50 Lung-NSC NCI-H460 (NCI-H460) [µg/mL] | GI50 Colon KM20L2 (KM20L2) [µg/mL] | GI50 CNS SF268 (SF268) [µg/mL] | further results
O=C1N[C@H]2[C@H](O)[C@H](O)[C@@H](O)[C@H](O)[C@@H]2c2cc3c(c(OP(=O)([O-])[O-])c21)OCO3.[Na+].[Na+] [Compound 1b, sodium pancratistatin 7-O-phosphate, reference compound] | 0.026 | 0.20 | 0.20 | 0.19 | 0.17 | 0.079 | 
O=C1N[C@H]2[C@H](OP(=O)(O)O)[C@H](O)[C@@H](O)[C@H](O)[C@@H]2c2cc3c(c(O)c21)OCO3.c1c[nH]cn1 [Compound 4j, Imidazolium Pancratistatin 4-O-Phosphate] | 0.13 | 0.33 | 0.25 | 0.25 | 0.13 | 0.21 | 
O=C1N[C@H]2[C@H](OP(=O)([O-])[O-])[C@H](O)[C@@H](O)[C@H](O)[C@@H]2c2cc3c(c(O)c21)OCO3.[Na+].[Na+] [Compound 4a, Sodium Pancratistatin 4-O-phosphate] | 0.94 | 0.18 | 0.18 | 0.38 | 0.24 | 0.12 | 
C1COCCN1.O=C1N[C@H]2[C@H](OP(=O)(O)O)[C@H](O)[C@@H](O)[C@H](O)[C@@H]2c2cc3c(c(O)c21)OCO3 [Compound 4i, Morpholinium Pancratistatin 4-O-Phosphate] | 0.18 | 0.40 | 0.29 | 0.46 | 0.37 | 0.38 | 
O=C1N[C@H]2[C@H](OP(=O)([O-])[O-])[C@H](O)[C@@H](O)[C@H](O)[C@@H]2c2cc3c(c(O)c21)OCO3.[Ca+2] [Compound 4f, Calcium Pancratistatin 4-O-Phosphate] | 0.12 | 0.36 | 0.25 | 0.27 | 0.23 | 0.26 | 
O=C1N[C@H]2[C@H](OP(=O)([O-])O)[C@H](O)[C@@H](O)[C@H](O)[C@@H]2c2cc3c(c(O)c21)OCO3.[Li+] [Compound 4c, Lithium Pancratistatin 4-O-phosphate] | 0.20 | 0.39 | 0.30 | 0.35 | 0.25 | 0.28 | 
C1CNCCN1.O=C1N[C@H]2[C@H](OP(=O)(O)O)[C@H](O)[C@@H](O)[C@H](O)[C@@H]2c2cc3c(c(O)c21)OCO3 [Compound 4h, Piperazinium Pancratistatin 4-O-Phosphate] | 0.21 | 0.38 | 0.31 | 0.35 | 0.24 | 0.27 | 
C=C[C@H]1CN2CC[C@H]1C[C@H]2[C@H](O)c1ccnc2ccc(OC)cc12.O=C1N[C@H]2[C@H](OP(=O)(O)O)[C@H](O)[C@@H](O)[C@H](O)[C@@H]2c2cc3c(c(O)c21)OCO3 [Compound 4k, Quinium Pancratistatin 4-O-Phosphate] | 0.15 | 0.35 | 0.23 | 0.31 | 0.22 | 0.28 | 
O=C1N[C@H]2[C@H](OP(=O)([O-])[O-])[C@H](O)[C@@H](O)[C@H](O)[C@@H]2c2cc3c(c(O)c21)OCO3.[K+].[K+] [Compound 4d, Potassium Pancratistatin 4-O-phosphate] | 0.22 | 0.46 | 0.45 | 0.40 | 0.30 | 0.39 | 
O=C1N[C@H]2[C@H](OP(=O)([O-])[O-])[C@H](O)[C@@H](O)[C@H](O)[C@@H]2c2cc3c(c(O)c21)OCO3.[Mg+2] [Compound 4e, Magnesium Pancratistatin 4-O-Phosphate] | 0.22 | 0.44 | 0.40 | 0.42 | 0.36 | 0.36 | 
O=C(O[C@H]1[C@H](O)[C@H]2OP(=O)([O-])O[C@H]2[C@@H]2NC(=O)c3c(cc4c(c3O)OCO4)[C@H]21)c1ccccc1.[Na+] [Compound 3b, Sodium Phenpanstatin 3,4,O-cyclic Phosphate] |  |  |  |  |  |  | GI50 Prostate DU-145 (DU-145; human cancer cell line DU-145): 0.13 µg/mL; GI50 Breast MCF-7 (MCF-7; human cancer cell line MCF-7): 0.041 µg/mL; GI50 Pancreas-a BXPC-3 (BXPC-3; human cancer cell line BXPC-3): 0.25 µg/mL; GI50 Lung-NSC NCI-H460 (NCI-H460; human cancer cell line NCI-H460): 0.029 µg/mL; GI50 Colon KM20L2 (KM20L2; human cancer cell line KM20L2): 0.13 µg/mL; GI50 CNS SF268 (SF268; human cancer cell line SF268): 0.17 µg/mL
O=C1N[C@H]2[C@@H]3OP(=O)([O-])O[C@@H]3[C@@H](O)[C@H](O)[C@@H]2c2cc3c(c(O)c21)OCO3.[Na+] [Compound 5a, Sodium Pancratistatin 3,4-cyclic Phosphate] | 2.3 | 2.9 | 3.3 | 3.8 | 3.7 | 2.9 | 
C=C[C@H]1CN2CC[C@H]1C[C@@H]2[C@@H](O)c1ccnc2ccc(OC)cc12.O=C1N[C@H]2[C@H](OP(=O)(O)O)[C@H](O)[C@@H](O)[C@H](O)[C@@H]2c2cc3c(c(O)c21)OCO3 [Compound 4l, Quinidium Pancratistatin 4-O-Phosphate] | 0.20 | 0.38 | 0.34 | 0.36 | 0.23 | 0.27 | 
O=C1N[C@@H]2C(=C[C@H](O)[C@@H](O)[C@H]2O)c2cc3c(c(O)c21)OCO3 [Compound 2a, narciclasine, reference compound] | 0.0032 (≈ 0.0104 µM) | 0.0032 (≈ 0.0104 µM) | 0.0035 (≈ 0.0114 µM) | 0.0084 (≈ 0.0273 µM) | 0.0032 (≈ 0.0104 µM) | 0.0031 (≈ 0.0101 µM) | 
O=C1N[C@H]2[C@H](OP(=O)([O-])[O-])[C@H](O)[C@@H](O)[C@H](O)[C@@H]2c2cc3c(c(O)c21)OCO3.[Zn+2] [Compound 4g, Zinc Pancratistatin 4-O-Phosphate] | 0.17 | 0.47 | 0.27 | 0.42 | 0.30 | 0.38 | 
O=C1N[C@H]2[C@H](O)[C@H](O)[C@@H](O)[C@H](O)[C@@H]2c2cc3c(c(O)c21)OCO3 [Compound 1a, (+)-pancratistatin, reference compound] |  |  |  |  |  |  | GI50 (DU-145): 0.015 µg/mL (≈ 0.0461 µM); GI50 (MCF-7): 0.023 µg/mL (≈ 0.0707 µM); GI50 (BXPC-3): 0.02 µg/mL (≈ 0.0615 µM); GI50 (NCI-H460): 0.032 µg/mL (≈ 0.0984 µM); activity against microspirochesis [1]: remarkable activity; GI50 (KM20L2): 0.025 µg/mL (≈ 0.0769 µM); GI50 (SF268): 0.014 µg/mL (≈ 0.043 µM)
O=C(O[C@H]1[C@H](O)[C@@H](O)[C@@H](O)[C@@H]2NC(=O)c3c(cc4c(c3O)OCO4)[C@H]21)c1ccccc1 [Compound 3a, phenpanstatin] |  |  |  |  |  |  | GI50 (DU-145): 0.00021 µg/mL (≈ 0.000489 µM); GI50 (MCF-7): 0.00031 µg/mL (≈ 0.000722 µM); GI50 (BXPC-3): 0.0019 µg/mL (≈ 0.00442 µM); GI50 (NCI-H460): 0.0001 µg/mL (≈ 0.000233 µM); GI50 (KM20L2): 0.00037 µg/mL (≈ 0.000862 µM); GI50 (SF268): 0.00055 µg/mL (≈ 0.00128 µM)
